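Assay format: 96-well plates, 48-hour exposure. At the GI50, growth is halved. TGI marks complete inhibition of growth.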 Bounds are passed on as bounds.

Assay in all cases: growth of human tumour cells (NCI), 48 h
Assay [1] concerns SN12C renal.
The test system of assay [2] is A549 NSCLC.
Assay [3] has as its system HOP-62 NSCLC.
Assay [4] relates to OVCAR-8 ovarian.
In assay [5] the test system is SW-620 colon.
The test system of assay [6] is A498 renal.
Assay [7] deals with SNB-19 CNS.
In assay [8] the test system is K-562 leukemia.
For assay [9], the system named is NCI-H460 lung.
Assay [10] deals with SNB-75 CNS.

As for `COc1cc2cc(Oc3ccc(NC(=O)c4ccc(Cl)c(Cl)c4)cc3)c(C)nc2cc1OC`, the GI50 in assay [1] is more than 100000 nM; in assay [2] it was more than 100 µM; in assay [3], more than 100 µM; in assay [4], more than 100 µM; in assay [5] it was more than 100000 nM; in assay [6], 20.6 µM. The GI50 was more than 100 µM in assay [7], 7.23 µM in [8], 25.4 µM in assay [9] and more than 100000 nM in [10]. Moreover, the TGI in assay [1], in assay [2], in assay [3], in [4], in [5] and in [6] was more than 100 µM throughout. The TGI in assay [7], in [8], in assay [9] and in assay [10] was more than 100 µM in each case.

For `O=C(O)c1cc(CCc2cc(O)ccc2O)ccc1O`, the TGI in assay [1], in assay [2], in assay [3], in assay [4], in assay [5] and in assay [6] was more than 100 µM throughout. The TGI in assay [8], in assay [9] and in [10] was more than 100 µM each time.

Take `COc1ccc(/C=C(\C)[N+](=O)[O-])cc1OC`: the GI50 in [1] is 2720 nM; in assay [2], 5.56 µM; in [3], 5.08 µM; in [4] it was 2.61 µM; in assay [5] it was 1780 nM; in assay [6], 4.51 µM. Also, the GI50 was 11.3 µM in [7], 2.17 µM in [8], 2.54 µM in [9] and 2200 nM in assay [10]. Also, the TGI in assay [1] amounted to 8.23 µM; in [2] it was 19.3 µM; in assay [3] it was 16.4 µM; in assay [4], 6.29 µM; in [5], 3.8 µM; in [6], 18.5 µM. Also, the TGI in assay [7] was 23.6 µM; in assay [8] it was more than 100 µM; in assay [9] it was 6.56 µM; in [10], 12.2 µM.

Regarding `Oc1cc(-n2cccn2)c(O)cc1-n1cccn1`, the TGI in [1] is 37.8 µM; in [2], more than 100 µM; in assay [3], more than 76.1 µM; in assay [4] it was 51.9 µM; in assay [5], 42.9 µM; in [6] it was more than 92.2 µM. For the same compound, the TGI in [7] is more than 82.3 µM; in [8] it was 39.3 µM; in assay [9], more than 100 µM; in assay [10], more than 97.3 µM.

As to `O=C1OC(=O)c2c1c(-c1ccccc1)nc1ccccc21`, the TGI in [1], in assay [2], in [3], in [4], in assay [5] and in [6] was more than 100 µM in each case. The TGI in [7], in assay [8], in assay [9] and in assay [10] was more than 100 µM in each case.

In the case of `Fc1ccc(/C=N/n2c(-c3ccc(F)c(Cl)c3)n[nH]c2=S)cc1`, the GI50 is 21.4 µM in [2]; 16.7 µM in assay [3]; 34.7 µM in assay [4]; 30200 nM in assay [5]; 13.8 µM in [6]; 22.5 µM in [7]. Also, the GI50 in assay [8] is 19.3 µM; in [9] it was 19.2 µM; in assay [10], 15300 nM. Besides, the TGI is 46 µM in assay [2]; 31.4 µM in assay [3]; more than 100 µM in assay [4]; more than 100 µM in [5]; 31 µM in [6]; 44.1 µM in assay [7]. The TGI in [8] was 36.6 µM; in assay [9] it was 38.3 µM; in [10], 30.1 µM.

For `Cc1cc(C)c(C2CNCc3cc4c(cc32)CNCC4c2c(C)cc(C)cc2C)c(C)c1` (centres undefined), the GI50 in assay [1] is 2.59 µg/mL; in [2], 4.53 µg/mL; in assay [3], 8.62 µg/mL; in [4] it was 2 µg/mL; in assay [5], 3.11 µg/mL; in assay [6] it was 2.06 µg/mL. Moreover, the GI50 in [7] is 3.46 µg/mL; in assay [8] it was 1.1 µg/mL; in assay [9] it was 2.53 µg/mL; in assay [10] it was 0.526 µg/mL. The TGI in assay [1] was found to be 9.63 µg/mL; in assay [2], 15.8 µg/mL; in [3], 22.3 µg/mL; in [4] it was 4.18 µg/mL; in [5] it was 11.5 µg/mL; in assay [6], 4.48 µg/mL. Further, the TGI stood at 11 µg/mL in assay [7], 3.22 µg/mL in [8], 6.91 µg/mL in assay [9] and 1.92 µg/mL in assay [10].

Take `COc1ccc2c(-c3ccnc(Nc4cccc(OC(F)(F)F)c4)n3)cnn2n1`: the GI50 in assay [1] is 1750 nM; in assay [2], 1.82 µM; in [3], 1.11 µM; in assay [4] it was 1.84 µM; in assay [5], 856 nM; in assay [6] it was 0.999 µM. The GI50 in assay [7] is 1.67 µM; in [8], 0.42 µM; in [9], 1.06 µM; in assay [10] it was 806 nM. Besides, the TGI in assay [1] was more than 18.3 µM; in [2] it was 5.42 µM; in assay [3] it was more than 15.9 µM; in [4], 10.5 µM; in assay [5], 4.84 µM; in assay [6], 10.6 µM. For the same compound, the TGI in [7] is more than 23.2 µM; in [8], more than 25 µM; in assay [9] it was 4.79 µM; in assay [10], 4.88 µM.

For the compound `Cc1[nH]c(-c2cc(N)ccc2Cl)c2c1C(=O)CCCC2`, the GI50 in [1] was 5010 nM; in [2], 7.91 µM; in assay [3] it was 2.29 µM; in [4], 3.26 µM; in [5], 12100 nM; in [6], 3.22 µM. The GI50 in assay [7] was 4.53 µM; in assay [8], 3.59 µM; in assay [9], 10.3 µM; in assay [10] it was 183 nM. The TGI in assay [1] is more than 100 µM; in assay [2], more than 100 µM; in [3], more than 100 µM; in assay [4], more than 100 µM; in [5], 55.6 µM; in [6], 9.84 µM. Also, the TGI in assay [7] was more than 100 µM; in assay [8], more than 100 µM; in assay [9], more than 100 µM; in assay [10] it was 5.2 µM.

For the compound `CCC(=O)Nc1ccc(N2C(=O)/C(=C/c3ccc(OC)cc3)N=C2c2ccccc2)cc1`, the GI50 in [1] is 5460 nM; in assay [2], 6.27 µM; in assay [4], 7.38 µM; in assay [5], 1380 nM; in assay [6] it was 10.4 µM; in assay [7], 14.1 µM. The GI50 in [8] was 5.57 µM; in assay [9], 2.1 µM; in [10], 6860 nM. Besides, the TGI in assay [1] was 15.3 µM; in assay [2], 27 µM; in [4] it was more than 50 µM; in [5], more than 50 µM; in assay [6], more than 50 µM; in assay [7] it was more than 50 µM. For the same compound, the TGI in assay [8], in [9] and in assay [10] was more than 50 µM in each case.

For `Oc1c(-c2cc(C(F)(F)F)[nH]n2)cc(Cl)c(OCc2ccc(Cl)cc2)c1-c1ccc(Cl)c(C(F)(F)F)c1`, the GI50 in assay [1] was 153 nM; in assay [2] it was 1.24 µM; in assay [3], 0.766 µM; in [4] it was 0.192 µM; in assay [5] it was 298 nM; in assay [6], 0.0996 µM. Besides, the GI50 in assay [7] was 0.565 µM; in assay [8], 0.126 µM; in [9], 0.361 µM; in [10], 496 nM. Besides, the TGI is 3.31 µM in assay [1]; 6.39 µM in [2]; 3.04 µM in assay [3]; 6.45 µM in [4]; 4.15 µM in assay [5]; 0.484 µM in assay [6]. Besides, the TGI is 6.62 µM in assay [7], 6.81 µM in assay [8], 2.57 µM in [9] and 1.74 µM in assay [10].

With `O=C(NCCNCCO)c1cccc2ccc(-c3ccccc3)nc12`, the TGI in [1] was 17.6 µM; in assay [2] it was 12.8 µM; in [3], 22.8 µM; in [4], 19.5 µM; in [5], 14.2 µM; in assay [6], 8.41 µM. Further, the TGI in assay [7] was 28.7 µM; in assay [8], more than 100 µM; in assay [9], 11.6 µM; in [10], 22.3 µM.

As to `Cc1cc2c(c(C(N)=O)c1C)-c1cc(Cl)cc(Cl)c1C2=O`, the TGI in [1], in [3], in assay [4], in [6], in assay [7] and in assay [8] was more than 100 µM in each case. The TGI is more than 100 µM in assay [9] and 45.6 µM in assay [10].

For `COc1ccc(-c2cc(=O)c3c(O)cccc3o2)c(OC)c1OC`, the TGI in [1] was more than 100 µM; in assay [2], more than 100 µM; in assay [3], more than 100 µM; in assay [4], more than 100 µM; in assay [5] it was more than 100 µM; in assay [6] it was 82.9 µM. In addition, the TGI is more than 100 µM in assay [8], more than 100 µM in assay [9] and 75.5 µM in [10].

`O=C(O)CCNS(=O)(=O)c1ccc([N+](=O)[O-])cc1`: the TGI in assay [1], in assay [2], in [4], in [5], in assay [6] and in assay [7] was more than 100 µM throughout. In addition, the TGI in assay [8], in assay [9] and in assay [10] was more than 100 µM each time.

As for `Cc1ccccc1-n1c(N)c(-c2nc3ccccc3[nH]2)sc1=S`, the TGI in [1] was 56.9 µM; in [2], 71.3 µM; in [3] it was 46 µM; in [4] it was 84.2 µM; in [5] it was 72.5 µM; in [6], more than 100 µM. In addition, the TGI in [7] was 66.4 µM; in assay [8], more than 100 µM; in assay [10], 56.6 µM.

Consider `C[n+]1c2ccccc2nc2c(N)cc(N)cc21`, for which the GI50 was 2550 nM in assay [1]; 14.1 µM in [2]; 3.48 µM in [3]; 10700 nM in assay [5]; 69.2 µM in assay [6]; 2.9 µM in [7]. The GI50 in assay [8] was 3.07 µM; in [9], 16.8 µM; in [10] it was 5200 nM. Further, the TGI was 14 µM in [1]; more than 100 µM in [2]; 38.1 µM in assay [3]; more than 100 µM in assay [5]; more than 100 µM in assay [6]; 14.4 µM in [7]. In addition, the TGI in assay [8] amounted to 33.2 µM; in assay [9], 59 µM; in assay [10] it was 18.7 µM.

`CCCC(S(=O)(=O)c1ccccc1)S(=O)(=O)c1ccccc1`: the TGI in assay [2], in [3], in [4], in assay [5], in [6] and in [8] was more than 100 µM each time. Moreover, the TGI in assay [9] and in assay [10] was more than 100 µM throughout.

As to `CC1=NN(c2ccccc2)C(=O)/C1=C\c1ccc([N+](=O)[O-])cc1`, the TGI in [1] is more than 100 µM; in assay [2], more than 100 µM; in [4], more than 100 µM; in assay [5], 93.2 µM; in assay [6] it was 56.2 µM; in assay [7] it was more than 100 µM. The results for the TGI in [8], in [9] and in assay [10] were 81.4 µM, more than 100 µM and more than 100 µM, respectively.

`Cc1ccc(NC(=O)C(=O)C(C(=O)/C=C/c2ccccc2)C2OC(=O)c3ccccc32)c(C)c1` (centres undefined): the TGI in [1], in assay [2], in assay [3], in [5], in assay [6] and in assay [7] was more than 100 µM each time. For the same compound, the TGI in assay [8], in assay [9] and in assay [10] was more than 100 µM each time.

(Values after PubChem BioAssay (NCI).)
